In paper PMC8138761 (The Journal of Biological Chemistry, 2021):

Columns and labels:
Assay type in all cases: biochemical
Details in all cases: read-out: % inhibition at 10 μM
[1] = target: T1, serine/threonine protein kinase-3 (MST2) (Homo sapiens, UniProt Q13188); test: in vitro FRET kinase profiling at […], duplicate
T1 sequence (Q13188 1-491): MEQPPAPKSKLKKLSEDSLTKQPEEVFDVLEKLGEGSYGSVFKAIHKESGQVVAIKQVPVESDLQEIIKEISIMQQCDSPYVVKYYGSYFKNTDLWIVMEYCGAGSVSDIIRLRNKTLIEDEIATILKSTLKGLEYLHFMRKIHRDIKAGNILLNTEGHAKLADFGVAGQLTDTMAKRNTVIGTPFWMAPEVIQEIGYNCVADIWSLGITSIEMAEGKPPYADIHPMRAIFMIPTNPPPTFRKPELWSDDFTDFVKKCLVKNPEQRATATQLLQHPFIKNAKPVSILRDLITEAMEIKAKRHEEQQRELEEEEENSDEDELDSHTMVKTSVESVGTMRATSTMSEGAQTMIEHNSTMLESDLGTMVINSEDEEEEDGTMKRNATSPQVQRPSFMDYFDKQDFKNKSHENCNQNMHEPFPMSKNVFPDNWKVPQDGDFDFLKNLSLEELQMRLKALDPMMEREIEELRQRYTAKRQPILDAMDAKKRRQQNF

[2] = target: T2, serine/threonine protein kinase-4 (MST1) (Homo sapiens, UniProt Q13043); test: in vitro FRET kinase profiling at […], duplicate
T2 sequence (Q13043 1-487): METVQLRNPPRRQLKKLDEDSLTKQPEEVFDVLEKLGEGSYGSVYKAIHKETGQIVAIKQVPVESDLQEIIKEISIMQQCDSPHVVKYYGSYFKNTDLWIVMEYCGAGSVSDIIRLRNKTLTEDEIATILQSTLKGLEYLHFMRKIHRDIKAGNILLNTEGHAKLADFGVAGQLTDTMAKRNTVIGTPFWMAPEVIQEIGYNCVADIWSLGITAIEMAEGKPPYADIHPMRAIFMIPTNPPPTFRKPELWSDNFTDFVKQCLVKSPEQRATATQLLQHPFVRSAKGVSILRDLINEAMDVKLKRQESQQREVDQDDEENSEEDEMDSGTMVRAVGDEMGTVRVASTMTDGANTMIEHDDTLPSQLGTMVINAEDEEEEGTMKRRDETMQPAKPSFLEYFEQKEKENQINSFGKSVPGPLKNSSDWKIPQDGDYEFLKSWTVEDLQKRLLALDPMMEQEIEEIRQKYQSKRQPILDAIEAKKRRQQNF

[3] = target: cyclin-dependent kinase 5 (CDK5) (Homo sapiens, UniProt Q00535); test: in vitro FRET kinase profiling at […], duplicate
[4] = target: glycogen synthase kinase 3-beta (GSK3-β) (Homo sapiens, UniProt P49841); test: in vitro FRET kinase profiling
[5] = target: cyclin-dependent kinase (CDK) 1 (Homo sapiens, UniProt P06493); test: in vitro FRET kinase profiling at […], duplicate
[6] = target: T3, serine/threonine kinase D2 (Homo sapiens, UniProt Q9BZL6); test: in vitro FRET kinase profiling at […], duplicate
T3 sequence (Q9BZL6 1-878): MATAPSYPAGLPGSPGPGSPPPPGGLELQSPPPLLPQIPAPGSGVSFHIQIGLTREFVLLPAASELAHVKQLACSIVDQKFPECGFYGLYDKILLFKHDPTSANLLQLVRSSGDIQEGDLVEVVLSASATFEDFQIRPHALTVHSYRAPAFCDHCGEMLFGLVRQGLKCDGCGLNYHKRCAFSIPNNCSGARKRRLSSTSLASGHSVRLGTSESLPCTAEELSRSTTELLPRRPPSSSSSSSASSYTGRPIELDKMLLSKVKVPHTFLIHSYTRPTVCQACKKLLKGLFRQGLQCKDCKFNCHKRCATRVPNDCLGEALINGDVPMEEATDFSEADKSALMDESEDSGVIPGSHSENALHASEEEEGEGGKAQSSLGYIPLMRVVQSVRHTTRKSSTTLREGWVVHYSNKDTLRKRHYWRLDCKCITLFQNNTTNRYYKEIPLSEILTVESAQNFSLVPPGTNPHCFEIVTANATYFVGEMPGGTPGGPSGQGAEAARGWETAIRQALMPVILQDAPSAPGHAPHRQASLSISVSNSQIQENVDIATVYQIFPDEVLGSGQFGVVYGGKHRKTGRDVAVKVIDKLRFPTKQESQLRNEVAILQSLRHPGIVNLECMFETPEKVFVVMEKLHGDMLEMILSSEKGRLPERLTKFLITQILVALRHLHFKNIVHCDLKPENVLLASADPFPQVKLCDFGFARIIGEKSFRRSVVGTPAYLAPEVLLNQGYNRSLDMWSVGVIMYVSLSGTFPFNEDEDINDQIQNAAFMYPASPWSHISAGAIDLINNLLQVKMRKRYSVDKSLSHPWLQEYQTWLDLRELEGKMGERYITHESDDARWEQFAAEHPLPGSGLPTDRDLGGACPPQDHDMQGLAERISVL

[7] = target: leucine-rich repeat kinase-2 (LRRK2) (Homo sapiens, UniProt Q5S007); test: in vitro FRET kinase profiling at […], duplicate
[8] = target: T4, checkpoint kinase-1 (CHK1) (Homo sapiens, UniProt O14757); test: in vitro FRET kinase profiling at […], duplicate
T4 sequence (O14757 1-476): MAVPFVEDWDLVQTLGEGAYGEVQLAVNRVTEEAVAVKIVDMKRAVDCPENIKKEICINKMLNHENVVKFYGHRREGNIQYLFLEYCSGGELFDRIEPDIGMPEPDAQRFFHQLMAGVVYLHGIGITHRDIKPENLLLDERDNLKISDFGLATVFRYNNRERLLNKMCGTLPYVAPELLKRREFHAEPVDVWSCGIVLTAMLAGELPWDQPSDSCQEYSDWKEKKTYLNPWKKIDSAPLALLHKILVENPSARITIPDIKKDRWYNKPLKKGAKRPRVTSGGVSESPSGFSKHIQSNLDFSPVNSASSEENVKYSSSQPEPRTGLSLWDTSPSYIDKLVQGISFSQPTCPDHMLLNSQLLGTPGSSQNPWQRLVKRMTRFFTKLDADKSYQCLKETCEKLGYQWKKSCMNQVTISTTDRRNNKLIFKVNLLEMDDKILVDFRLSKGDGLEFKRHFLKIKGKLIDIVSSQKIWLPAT

[9] = target: checkpoint kinase-2 (CHK2) (Homo sapiens, UniProt O96017); test: in vitro FRET kinase profiling at […], duplicate
[10] = target: serine/threonine protein kinase-24 (MST3) (Homo sapiens, UniProt Q9Y6E0); test: in vitro FRET kinase profiling at […], duplicate
Sequence of serine/threonine protein kinase-24 (MST3) (Q9Y6E0 whole entry): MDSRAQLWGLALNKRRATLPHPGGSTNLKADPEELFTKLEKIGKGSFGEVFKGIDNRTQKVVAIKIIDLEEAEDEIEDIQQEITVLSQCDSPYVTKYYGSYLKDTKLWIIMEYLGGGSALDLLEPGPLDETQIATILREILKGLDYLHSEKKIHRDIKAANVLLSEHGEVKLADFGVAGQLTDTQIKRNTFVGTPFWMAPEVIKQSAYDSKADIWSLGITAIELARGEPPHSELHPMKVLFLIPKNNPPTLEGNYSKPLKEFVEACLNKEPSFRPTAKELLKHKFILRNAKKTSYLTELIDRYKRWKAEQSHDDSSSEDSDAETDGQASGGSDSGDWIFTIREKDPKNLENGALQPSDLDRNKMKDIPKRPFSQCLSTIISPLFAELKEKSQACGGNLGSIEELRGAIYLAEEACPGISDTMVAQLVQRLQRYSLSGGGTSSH

Sequence of glycogen synthase kinase 3-beta (GSK3-β) (P49841 whole entry): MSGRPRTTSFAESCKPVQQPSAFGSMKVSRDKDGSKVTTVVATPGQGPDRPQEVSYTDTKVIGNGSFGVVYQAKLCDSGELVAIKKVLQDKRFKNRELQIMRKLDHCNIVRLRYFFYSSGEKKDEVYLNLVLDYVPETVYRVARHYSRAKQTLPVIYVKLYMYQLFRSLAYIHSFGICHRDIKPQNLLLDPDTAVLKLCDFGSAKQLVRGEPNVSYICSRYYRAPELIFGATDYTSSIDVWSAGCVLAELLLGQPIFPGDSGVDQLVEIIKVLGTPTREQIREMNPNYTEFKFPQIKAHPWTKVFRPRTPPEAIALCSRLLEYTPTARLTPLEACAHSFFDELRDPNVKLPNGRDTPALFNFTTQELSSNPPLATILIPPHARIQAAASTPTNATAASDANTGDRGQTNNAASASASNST
Sequence of leucine-rich repeat kinase-2 (LRRK2) (Q5S007 whole entry): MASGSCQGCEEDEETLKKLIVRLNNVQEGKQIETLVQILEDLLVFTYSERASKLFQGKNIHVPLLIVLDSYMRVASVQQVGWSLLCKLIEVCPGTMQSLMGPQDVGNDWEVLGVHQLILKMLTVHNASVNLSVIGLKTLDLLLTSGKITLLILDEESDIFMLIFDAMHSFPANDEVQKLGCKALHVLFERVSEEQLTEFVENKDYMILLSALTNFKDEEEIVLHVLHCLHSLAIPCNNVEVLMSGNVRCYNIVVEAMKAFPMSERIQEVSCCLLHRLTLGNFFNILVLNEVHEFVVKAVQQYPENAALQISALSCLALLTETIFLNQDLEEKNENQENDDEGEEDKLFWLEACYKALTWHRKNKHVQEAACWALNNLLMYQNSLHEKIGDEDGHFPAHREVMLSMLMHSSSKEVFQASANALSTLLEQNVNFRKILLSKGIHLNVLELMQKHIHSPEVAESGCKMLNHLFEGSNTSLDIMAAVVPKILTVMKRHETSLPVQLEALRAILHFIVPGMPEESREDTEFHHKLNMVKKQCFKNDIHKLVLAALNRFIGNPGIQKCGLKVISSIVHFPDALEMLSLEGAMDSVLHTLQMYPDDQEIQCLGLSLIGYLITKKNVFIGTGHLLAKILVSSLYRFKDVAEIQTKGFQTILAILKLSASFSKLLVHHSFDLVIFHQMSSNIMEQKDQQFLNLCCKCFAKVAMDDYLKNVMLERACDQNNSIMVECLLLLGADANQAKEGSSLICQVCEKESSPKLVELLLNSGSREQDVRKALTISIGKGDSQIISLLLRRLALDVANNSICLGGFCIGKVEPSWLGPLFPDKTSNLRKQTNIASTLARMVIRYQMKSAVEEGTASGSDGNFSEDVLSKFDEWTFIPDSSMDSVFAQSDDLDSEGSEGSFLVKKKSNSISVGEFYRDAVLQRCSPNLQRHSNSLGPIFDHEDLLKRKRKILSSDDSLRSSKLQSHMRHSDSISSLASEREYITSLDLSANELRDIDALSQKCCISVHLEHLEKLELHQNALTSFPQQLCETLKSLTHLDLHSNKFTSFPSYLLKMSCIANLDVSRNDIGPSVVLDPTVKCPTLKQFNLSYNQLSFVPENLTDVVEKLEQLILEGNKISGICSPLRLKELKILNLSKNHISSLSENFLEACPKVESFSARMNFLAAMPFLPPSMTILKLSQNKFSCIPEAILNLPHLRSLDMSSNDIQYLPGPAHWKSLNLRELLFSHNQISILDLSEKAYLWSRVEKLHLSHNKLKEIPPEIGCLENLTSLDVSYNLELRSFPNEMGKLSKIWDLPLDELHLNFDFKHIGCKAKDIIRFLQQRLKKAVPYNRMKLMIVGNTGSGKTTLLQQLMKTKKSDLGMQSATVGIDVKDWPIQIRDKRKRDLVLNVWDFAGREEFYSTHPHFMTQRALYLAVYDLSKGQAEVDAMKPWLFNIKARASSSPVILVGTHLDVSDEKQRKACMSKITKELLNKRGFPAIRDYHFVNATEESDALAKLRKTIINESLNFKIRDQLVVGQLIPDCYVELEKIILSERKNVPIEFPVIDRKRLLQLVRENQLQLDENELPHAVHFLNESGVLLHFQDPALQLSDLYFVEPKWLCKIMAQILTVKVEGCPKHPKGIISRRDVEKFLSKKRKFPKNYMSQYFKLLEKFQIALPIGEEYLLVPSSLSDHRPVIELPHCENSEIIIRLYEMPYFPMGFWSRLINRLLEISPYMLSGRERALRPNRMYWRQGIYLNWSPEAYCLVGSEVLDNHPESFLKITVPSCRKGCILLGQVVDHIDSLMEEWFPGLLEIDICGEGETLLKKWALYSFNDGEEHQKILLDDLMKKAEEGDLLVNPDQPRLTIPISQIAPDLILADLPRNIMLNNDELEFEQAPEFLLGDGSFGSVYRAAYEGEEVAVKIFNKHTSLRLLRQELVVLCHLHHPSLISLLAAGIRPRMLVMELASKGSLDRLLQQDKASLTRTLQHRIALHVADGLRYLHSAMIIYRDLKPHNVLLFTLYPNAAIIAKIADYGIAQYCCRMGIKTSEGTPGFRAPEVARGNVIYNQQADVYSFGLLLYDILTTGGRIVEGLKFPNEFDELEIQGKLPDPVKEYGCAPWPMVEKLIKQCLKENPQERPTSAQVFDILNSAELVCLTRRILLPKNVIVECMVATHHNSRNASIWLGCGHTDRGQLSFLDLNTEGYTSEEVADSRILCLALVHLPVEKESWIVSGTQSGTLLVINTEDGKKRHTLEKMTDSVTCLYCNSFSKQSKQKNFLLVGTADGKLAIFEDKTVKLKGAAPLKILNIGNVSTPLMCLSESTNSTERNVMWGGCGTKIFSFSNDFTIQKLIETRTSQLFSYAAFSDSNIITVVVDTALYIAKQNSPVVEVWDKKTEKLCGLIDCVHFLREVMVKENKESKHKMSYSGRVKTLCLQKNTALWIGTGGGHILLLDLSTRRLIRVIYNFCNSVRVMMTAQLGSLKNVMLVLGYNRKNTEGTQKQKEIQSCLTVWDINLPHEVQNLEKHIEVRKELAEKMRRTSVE
Sequence of checkpoint kinase-2 (CHK2) (O96017 whole entry): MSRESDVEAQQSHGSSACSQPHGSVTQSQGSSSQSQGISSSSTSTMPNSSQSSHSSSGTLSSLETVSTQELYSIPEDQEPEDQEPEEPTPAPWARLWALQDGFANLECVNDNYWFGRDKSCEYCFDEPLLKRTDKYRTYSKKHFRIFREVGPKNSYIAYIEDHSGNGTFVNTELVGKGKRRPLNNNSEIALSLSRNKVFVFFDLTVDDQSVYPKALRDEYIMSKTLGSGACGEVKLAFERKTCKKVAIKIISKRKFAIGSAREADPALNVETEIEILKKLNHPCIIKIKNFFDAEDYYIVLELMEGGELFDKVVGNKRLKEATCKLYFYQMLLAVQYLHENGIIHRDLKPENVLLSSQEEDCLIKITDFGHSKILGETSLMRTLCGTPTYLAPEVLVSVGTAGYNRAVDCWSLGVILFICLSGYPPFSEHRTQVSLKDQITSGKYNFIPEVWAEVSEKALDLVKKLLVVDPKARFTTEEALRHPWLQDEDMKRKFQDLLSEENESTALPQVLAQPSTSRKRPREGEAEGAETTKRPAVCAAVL
Sequence of cyclin-dependent kinase (CDK) 1 (P06493 whole entry): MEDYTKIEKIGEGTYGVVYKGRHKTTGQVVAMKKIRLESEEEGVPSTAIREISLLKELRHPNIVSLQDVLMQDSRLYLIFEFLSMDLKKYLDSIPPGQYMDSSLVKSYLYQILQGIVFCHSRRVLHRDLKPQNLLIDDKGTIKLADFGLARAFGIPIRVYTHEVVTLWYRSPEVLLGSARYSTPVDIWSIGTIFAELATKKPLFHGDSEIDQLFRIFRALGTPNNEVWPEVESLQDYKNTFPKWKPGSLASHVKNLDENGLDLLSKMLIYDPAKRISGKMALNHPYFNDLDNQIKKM
Sequence of cyclin-dependent kinase (CDK) 1 (P14635 whole entry, further chain): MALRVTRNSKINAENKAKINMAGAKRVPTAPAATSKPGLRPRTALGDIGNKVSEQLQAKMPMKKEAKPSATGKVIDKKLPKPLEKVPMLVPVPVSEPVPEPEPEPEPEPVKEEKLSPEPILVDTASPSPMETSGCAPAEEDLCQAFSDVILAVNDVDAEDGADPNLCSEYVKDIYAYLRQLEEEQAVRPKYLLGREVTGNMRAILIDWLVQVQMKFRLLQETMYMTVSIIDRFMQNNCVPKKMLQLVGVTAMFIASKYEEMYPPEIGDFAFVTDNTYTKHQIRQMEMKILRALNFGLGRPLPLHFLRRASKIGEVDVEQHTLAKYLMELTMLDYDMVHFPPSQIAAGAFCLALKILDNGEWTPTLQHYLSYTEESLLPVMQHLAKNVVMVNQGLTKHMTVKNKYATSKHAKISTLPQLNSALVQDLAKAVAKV

inhibition at 10 µM [1]: > 70%
inhibition at 10 µM [2]: > 70%
inhibition at 10 µM [3]: > 70%
inhibition at 10 µM [4]: 100%
inhibition at 10 µM [5]: > 70%
inhibition at 10 µM [6]: > 70%
inhibition at 10 µM [7]: > 70%
inhibition at 10 µM [8]: > 70%
inhibition at 10 µM [9]: > 70%
inhibition at 10 µM [10]: > 70%
SMILES: Cc1cc(C)c2[nH]c(=O)c(-c3[nH]cnc3-c3ccccc3)cc2c1 [DIPQUO]
